Substitutions are numbered along the chain they refer to.
Legend:
[1] = biological target: T1, S1P4 (Homo sapiens, UniProt O95977, E122Q); test: […]GTPγS binding assay at a single […] concentration (weak agonist); assay type: cell-based; conditions: read-out: % stimulation over basal at 10 μM
T1 construct: gene S1PR4; HA-S1P4(E3.29(122)Q)-Gαi1(C351I) fusion in CHO-K1 membranes, pertussis toxin treated; with Gαi1(C351I) (fused)
T1 sequence (O95977 1-384 E122Q): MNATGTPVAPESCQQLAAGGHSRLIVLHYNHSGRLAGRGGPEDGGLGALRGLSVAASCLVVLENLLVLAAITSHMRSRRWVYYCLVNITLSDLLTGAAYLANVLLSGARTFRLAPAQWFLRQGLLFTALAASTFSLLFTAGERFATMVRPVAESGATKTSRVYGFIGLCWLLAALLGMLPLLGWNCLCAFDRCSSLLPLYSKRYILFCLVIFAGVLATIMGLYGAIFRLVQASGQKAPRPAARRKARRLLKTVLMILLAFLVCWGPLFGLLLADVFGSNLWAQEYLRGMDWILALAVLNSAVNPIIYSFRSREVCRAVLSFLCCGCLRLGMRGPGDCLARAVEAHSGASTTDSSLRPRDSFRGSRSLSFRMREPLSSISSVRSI

[2] = biological target: T2, S1P4 (Homo sapiens, UniProt O95977); test: […]GTPγS binding assay, CHO-K1 membranes; assay type: biochemical
T2 construct: gene S1PR4
T2 sequence (O95977 1-384): T1 sequence (O95977 1-384 E122Q) with Q122E

Row | SMILES | activation at 10 µM [1] | EC50 [2]
1 | CCCCCCCCCCCCCCCC(=O)OC[C@@H](O)COP(=O)(O)O [16:0 LPA] | ~19% | –
2 | CCCCCCCCCCCCC/C=C/[C@@H](O)[C@@H](N)COP(=O)(O)O [S1P, Sphingosine-1-phosphate] | – | 355 ± 155 nM

Reference: PMC514652, “A single amino acid determines preference between phospholipids and reveals length restriction for activation ofthe S1P4 receptor” (BMC Biochemistry, 2004)
